From paper PMC11823630, “In vitro potentiation of tetracyclines in Pseudomonas aeruginosa by RW01, a new cyclic peptide” (Antimicrobial Agents and Chemotherapy, 2024)
≈ marks a conversion by molar mass, not a printed value. Where a SMILES comes first, the peptide text is derived from it.

How the values were obtained:
C57BL/6J females [1] = experiment: In vivo cumulative toxicity; design: species or system mice; conditions: ip 0.2 mL once a day for 3 days at 500 mg/L; n = 6; observed 7 days
Description: (§1) To study the acute toxicity of RW01, two groups of n = 6 C57BL/6J females (≈20 g) were treated intraperitoneally (ip) with a single dose of 0.2 mL of 250 and 500 mg/L concentrations of RW01, respectively. After administration and for 7 days, the following indicative signs of pain were assessed: reduced water (dehydration), food intake, isolation, self-mutilation, tremors/spasms, dyspnea, physical activity (increased/reduced), chromodacryorrhea, muscle stiffness, piloerection, teeth grinding, and weight loss. For cumulative toxicity determination, a group of n = 6, 7-week-old healthy C57BL/6J females was treated ip, with a 0.2 mL single dose per day for 3 days at a concentration equivalent to 500 mg/L. After administration and for 7 days, the same indicative signs of pain/toxicity detailed in the acute toxicity studies were evaluated.

C57BL/6J females [2] = experiment: In vivo acute toxicity; design: species or system mice; conditions: single ip dose of 0.2 mL at 250 or 500 mg/L; n = 6 per group; observed 7 days
Description: as §1

[3] = test system: PAO1 mutant MIN16_3, nfxB(nt79∆14), pilB(N349K); experiment: MIC, E-test on MHA; assay type: cell-based; conditions: Pseudomonas aeruginosa, PAO1, read-out: MIC, E-test
[4] = test system: PAO1 mutant MIN2_RW01_3, parS(V152A); experiment: MIC, E-test on MHA; assay type: cell-based; conditions: Pseudomonas aeruginosa, PAO1, read-out: MIC, E-test
[5] = test system: PAO1 mutant MIN8_4, pilZ(nt18InsT); experiment: MIC, E-test on MHA; assay type: cell-based; conditions: Pseudomonas aeruginosa, PAO1, read-out: MIC, E-test
[6] = test system: PAO1 mutant MIN16_2, nalC(aa9∆4), pilQ(nt46∆1); experiment: MIC, E-test on MHA; assay type: cell-based; conditions: Pseudomonas aeruginosa, PAO1, read-out: MIC, E-test
[7] = test system: PAO1 mutant MIN8_2, pilZ(nt18InsT); experiment: MIC, E-test on MHA; assay type: cell-based; conditions: Pseudomonas aeruginosa, PAO1, read-out: MIC, E-test
[8] = test system: PAO1 mutant MIN2_RW01_1, pmrB(V215L); experiment: MIC, E-test on MHA; assay type: cell-based; conditions: Pseudomonas aeruginosa, PAO1, read-out: MIC, E-test
[9] = test system: PAO1 mutant MIN2_RW01_2, pmrB(M292T); experiment: MIC, E-test on MHA; assay type: cell-based; conditions: Pseudomonas aeruginosa, PAO1, read-out: MIC, E-test
[10] = test system: PAO1 mutant MIN4_RW01_1, pmrB(R429H); experiment: MIC, E-test on MHA; assay type: cell-based; conditions: Pseudomonas aeruginosa, PAO1, read-out: MIC, E-test
[11] = test system: PAO1 mutant MIN8_3, pilZ(nt18InsT); experiment: MIC, E-test on MHA; assay type: cell-based; conditions: Pseudomonas aeruginosa, PAO1, read-out: MIC, E-test
[12] = test system: PAO1 mutant MIN4_RW01_4, pmrB(Y98N); experiment: MIC, E-test on MHA; assay type: cell-based; conditions: Pseudomonas aeruginosa, PAO1, read-out: MIC, E-test
[13] = test system: PAO1 mutant MIN16_4, nalC(T50P), pilM(Q62X); experiment: MIC, E-test on MHA; assay type: cell-based; conditions: Pseudomonas aeruginosa, PAO1, read-out: MIC, E-test
[14] = test system: PAO1 mutant MIN1_RW01_2, mexR(G58E), pilB(G326D), hutC(Y181X); experiment: MIC, E-test on MHA; assay type: cell-based; conditions: Pseudomonas aeruginosa, PAO1, read-out: MIC, E-test
[15] = test system: PAO1 mutant MIN1_RW01_1, pmrB(Y98N); experiment: MIC, E-test on MHA; assay type: cell-based; conditions: Pseudomonas aeruginosa, PAO1, read-out: MIC, E-test
[16] = test system: PAO1 mutant MIN2_RW01_4, pmrB(M292T); experiment: MIC, E-test on MHA; assay type: cell-based; conditions: Pseudomonas aeruginosa, PAO1, read-out: MIC, E-test
P. aeruginosa PAOUW = experiment: MIC, CLSI broth microdilution in BD Phoenix AST Broth; assay type: cell-based, Pseudomonas aeruginosa; conditions: strain PAOUW; antibiotic with RW01 at 100 mg/L
Description: (§2) MIC for RW01 was also tested.
(§3) FIC of RW01 (FICRW01)=MIC of RW01 in combination/MIC of RW01 alone,FIC of antibiotic (FICATB)=MIC of ATB in combination/MIC of ATB alone,FICI=FICRW01 +FICATB.
(§4) FICI was interpreted as follows: synergistic effect if FICI is ≤0.5; additive effect if 0.5 < FICI ≤ 1.0; indifferent effect if 1.0 < FICI ≤ 2.0; and finally, antagonistic effect if FICI is >2.0. The average FICI considering the antibiotic MIC (no growth in any of the replicates) at different concentrations of RW01 was calculated ([28]).

P. aeruginosa 125A = experiment: as above; assay type: cell-based, Pseudomonas aeruginosa; conditions: strain 125A; antibiotic with RW01 at 100 mg/L
Description: as §2, §3, §4

P. aeruginosa PAO1 = experiment: as above; assay type: cell-based, Pseudomonas aeruginosa; conditions: strain PAO1; antibiotic with RW01 at 100 mg/L
Description: as §2, §3, §4

P. aeruginosa PAOΔmexR = experiment: as above; assay type: cell-based, Pseudomonas aeruginosa
Description: as §2, §3, §4

P. aeruginosa PAOUW∆oprF = experiment: as above; assay type: cell-based, Pseudomonas aeruginosa
Description: as §2, §3, §4

P. aeruginosa 41B = experiment: as above; assay type: cell-based, Pseudomonas aeruginosa; conditions: strain 41B
Description: as §2, §3, §4

P. aeruginosa PAOΔmexZ = experiment: as above; assay type: cell-based, Pseudomonas aeruginosa; conditions: strain PAOΔmexZ
Description: as §2, §3, §4

P. aeruginosa PAOΔoprM = experiment: as above; assay type: cell-based, Pseudomonas aeruginosa
Description: as §2, §3, §4

P. aeruginosa 125B = experiment: as above; assay type: cell-based, Pseudomonas aeruginosa; conditions: strain 125B; antibiotic with RW01 at 100 mg/L
Description: as §2, §3, §4

P. aeruginosa 41A = experiment: as above; assay type: cell-based, Pseudomonas aeruginosa; conditions: strain 41A
Description: as §2, §3, §4

[17] = test system: PAO1 mutant MIN1_RW01_3, pmrB(V215L); experiment: MIC, E-test on MHA; assay type: cell-based; conditions: Pseudomonas aeruginosa, PAO1, read-out: MIC, E-test
[18] = test system: PAO1 mutant MIN4_RW01_3, pmrB(M292T); experiment: MIC, E-test on MHA; assay type: cell-based; conditions: Pseudomonas aeruginosa, PAO1, read-out: MIC, E-test
[19] = test system: PAO1 mutant MIN8_1, nalD(R3C), pilM(Q62X); experiment: MIC, E-test on MHA; assay type: cell-based; conditions: Pseudomonas aeruginosa, PAO1, read-out: MIC, E-test
[20] = test system: PAO1 mutant MIN4_RW01_2, pmrB(F124S); experiment: MIC, E-test on MHA; assay type: cell-based; conditions: Pseudomonas aeruginosa, PAO1, read-out: MIC, E-test
[21] = test system: PAO1 mutant MIN1_RW01_4, pmrB(F124L); experiment: MIC, E-test on MHA; assay type: cell-based; conditions: Pseudomonas aeruginosa, PAO1, read-out: MIC, E-test
[22] = test system: PAO1 mutant MIN16_1, nalD(T43P); experiment: MIC, E-test on MHA; assay type: cell-based; conditions: Pseudomonas aeruginosa, PAO1, read-out: MIC, E-test
[23] = test system: PAO1 mutant MIN32_1, mexR(R63H), pilB(N349K), PA0646(V316G); experiment: MIC, E-test on MHA; assay type: cell-based; conditions: Pseudomonas aeruginosa, PAO1, read-out: MIC, E-test
PAO1 one-step mutants = experiment: MIC, Sensititre custom plate, mutants summarised as a group; assay type: cell-based, Pseudomonas aeruginosa; conditions: mutants generated by minocycline alone
Description: Selection of resistant mutants was performed for minocycline with and without RW01 in three independent replicates for wild-type P. aeruginosa reference strain PAO1. Tubes containing Mueller-Hinton broth (MHB) were inoculated and incubated for 24 h at 37°C. Afterward, 1/100 dilution of each tube was incubated at 37°C in MHB to late-exponential growth phase, measured by spectrophotometry at OD600. […] A control plate without antibiotic was included as inoculum control. After overnight incubation, colony counting of each treatment was performed to analyze the generation of resistant population. The mutant prevention concentration (MPC) was defined as the lowest concentration of antibiotic yielding no growth of resistant mutants. Selected mutants were checked for susceptibility profiles by using a Sensititre custom plate (Thermo Fisher Scientific, Massachusetts, USA) for Gram-negative bacteria, following the manufacturer’s instructions.

[24] = strain PAOΔmexR, antibiotic with RW01 at 100 mg/L
[25] = strain PAOUWΔoprF (printed PAOΔoprF), antibiotic with RW01 at 100 mg/L
[26] = Pseudomonas aeruginosa, agent alone, 37°C, 18–22 h, three biological replicates
[27] = antibiotic with RW01 at 100 mg/L
[28] = strain PAOΔoprM, antibiotic with RW01 at 100 mg/L

N=C(N)NCCC[C@@H]1NC(=O)[C@H]2C[C@H](N)CN2C(=O)[C@H](Cc2c[nH]c3ccccc23)NC(=O)[C@H](CCCNC(=N)N)NC(=O)[C@H]2CCCN2C(=O)[C@H](Cc2c[nH]c3ccccc23)NC1=O [RW01] (HELM PEPTIDE1{R.W.[dP].R.W.[N[C@H]1C[C@H](C(=O)[*:2])N([*:1])C1]}$PEPTIDE1,PEPTIDE1,1:R1-6:R2$$$V2.0)
signs of pain/toxicity, cumulative toxicity (C57BL/6J females [1]): None of the doses tested of RW01 showed any of the 11 symptoms indicative of pain/toxicity | signs of pain/toxicity, acute toxicity (C57BL/6J females [2]): None of the doses tested of RW01 showed any of the 11 symptoms indicative of pain/toxicity

CN(C)[C@@H]1C(O)=C(C(N)=O)C(=O)[C@@]2(O)C(O)=C3C(=O)c4c(O)cccc4[C@@](C)(O)[C@H]3C[C@@H]12 [Tetracycline, tetracycline]
MIC [3]: 128 µg/mL (≈ 288 µM) | MIC [4]: 256 µg/mL (≈ 576 µM) | MIC [5]: 64 µg/mL (≈ 144 µM) | MIC [6]: 96 µg/mL (≈ 216 µM) | MIC [7]: 256 µg/mL (≈ 576 µM) | MIC [8]: 128 µg/mL (≈ 288 µM) | MIC [9]: 192 µg/mL (≈ 432 µM) | MIC [10]: 256 µg/mL (≈ 576 µM) | MIC [11]: 64 µg/mL (≈ 144 µM) | MIC [12]: 96 µg/mL (≈ 216 µM) | MIC [13]: 64 µg/mL (≈ 144 µM) | MIC [14]: 256 µg/mL (≈ 576 µM) | MIC [15]: 192 µg/mL (≈ 432 µM) | MIC [16]: 96 µg/mL (≈ 216 µM) | FICI-determined effect (P. aeruginosa PAOUW): Synergy (synergistic effect if FICI is ≤0.5) | FICI-determined effect (P. aeruginosa 125A): Synergy (synergistic effect if FICI is ≤0.5) | FICI (P. aeruginosa PAO1): 0.445 | FICI-determined effect (P. aeruginosa PAO1): Synergy (synergistic effect if FICI is ≤0.5) | MIC (P. aeruginosa PAOΔmexR; Pseudomonas aeruginosa): 16 µg/mL | Antibiotic MIC + RW01 100 mg/L (P. aeruginosa PAOΔmexR; strain PAOΔmexR, MIC of the antibiotic with fixed 100 mg/L RW01): 4 µg/mL | FICI (P. aeruginosa PAOΔmexR; [24]): 0.348 | FICI-determined effect (P. aeruginosa PAOΔmexR; [24]): Synergy (synergistic effect if FICI is ≤0.5) | FICI (P. aeruginosa PAOUW∆oprF; [25]): 0.223 | FICI-determined effect (P. aeruginosa PAOUW∆oprF; [25]): Synergy (synergistic effect if FICI is ≤0.5) | MIC (P. aeruginosa PAOUW∆oprF; strain PAOUWΔoprF, agent alone, 37°C, 18–22 h, three biological replicates): 16 µg/mL | MIC (P. aeruginosa 41B; [26]): 16 µg/mL | FICI-determined effect (P. aeruginosa 41B; [27]): Additivity (additive effect if 0.5 < FICI ≤ 1.0) | MIC (P. aeruginosa PAOΔmexZ; [26]): 16 µg/mL | FICI (P. aeruginosa PAOΔmexZ; [27]): 0.223 | FICI-determined effect (P. aeruginosa PAOΔmexZ; [27]): Synergy (synergistic effect if FICI is ≤0.5) | MIC (P. aeruginosa PAOΔoprM; Pseudomonas aeruginosa): 1 µg/mL | Antibiotic MIC + RW01 100 mg/L (P. aeruginosa PAOΔoprM; strain PAOΔoprM, MIC of the antibiotic with fixed 100 mg/L RW01): 0.5 µg/mL | FICI (P. aeruginosa PAOΔoprM; [28]): 0.598 | FICI-determined effect (P. aeruginosa PAOΔoprM; [28]): Additivity (additive effect if 0.5 < FICI ≤ 1.0) | FICI (P. aeruginosa 125B): 0.445 | FICI-determined effect (P. aeruginosa 125B): Synergy (synergistic effect if FICI is ≤0.5) | MIC (P. aeruginosa 41A; [26]): 16 µg/mL | FICI-determined effect (P. aeruginosa 41A; [27]): Additivity (additive effect if 0.5 < FICI ≤ 1.0) | MIC [17]: 256 µg/mL (≈ 576 µM) | MIC [18]: 256 µg/mL (≈ 576 µM) | MIC [19]: 256 µg/mL (≈ 576 µM) | MIC [20]: 64 µg/mL (≈ 144 µM) | MIC [21]: 64 µg/mL (≈ 144 µM) | MIC [22]: 256 µg/mL (≈ 576 µM) | MIC [23]: 256 µg/mL (≈ 576 µM)

colistin
colistin MIC vs wild type (PAO1 one-step mutants): remained unchanged
